The record followed here is patent US4610816A (Schering Corporation, priority 1981, dated 1986).

SMILES strings stand for the structures.

One assay addresses T1, enkephalinase A (Rattus norvegicus, UniProt P07861).
T1 construct: from tissue; host or cells: Sprague-Dawley rat brain minus cerebellum; membrane pellet solubilised in 1% Triton X-100, DEAE Sephacel fraction eluting at 120-200 ml
T1 sequence (P07861 1-750): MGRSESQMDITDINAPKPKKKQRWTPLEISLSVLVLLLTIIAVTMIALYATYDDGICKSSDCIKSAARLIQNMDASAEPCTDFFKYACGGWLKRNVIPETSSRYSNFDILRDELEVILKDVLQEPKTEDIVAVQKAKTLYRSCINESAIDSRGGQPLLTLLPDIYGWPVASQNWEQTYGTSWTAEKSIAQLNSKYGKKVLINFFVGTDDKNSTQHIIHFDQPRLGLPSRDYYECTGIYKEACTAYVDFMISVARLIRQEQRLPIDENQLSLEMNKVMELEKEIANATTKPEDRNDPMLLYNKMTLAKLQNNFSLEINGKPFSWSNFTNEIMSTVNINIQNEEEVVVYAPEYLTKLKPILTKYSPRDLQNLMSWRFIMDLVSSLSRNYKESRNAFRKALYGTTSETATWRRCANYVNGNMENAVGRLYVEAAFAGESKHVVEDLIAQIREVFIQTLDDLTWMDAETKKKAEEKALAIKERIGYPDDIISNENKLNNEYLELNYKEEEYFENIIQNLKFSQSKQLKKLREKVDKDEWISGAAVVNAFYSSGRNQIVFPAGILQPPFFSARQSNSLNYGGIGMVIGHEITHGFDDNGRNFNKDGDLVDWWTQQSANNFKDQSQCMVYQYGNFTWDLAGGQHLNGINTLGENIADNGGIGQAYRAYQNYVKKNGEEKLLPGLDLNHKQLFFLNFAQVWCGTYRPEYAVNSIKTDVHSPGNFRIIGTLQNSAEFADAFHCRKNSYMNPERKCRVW
As to the kind of experiment: Enkephalinase A inhibition, radiometric 3H-Met5-ENK degradation assay with TLC separation. It is filed as biochemical, Sprague-Dawley rats. The following applies: rat brain membrane enzyme, 40 nM 3H-Met5-ENK, 90 min at 37° C.; N.A. = No activity at <10^5 nM.

A further assay has as its system Male CFl mice. The assay is described as follows: Potentiation of the analgesic effects of (DAla2-Met5)-enkephalinamide (DAEAM), tail-flick test. It is filed as in vivo. The following applies: mouse tail-flick, DAEAM icv, latency 30 min later, dose at which half the test animals displayed analgesia. An excerpt:
Male CFl mice (19-23 g) from Charles River Breeding Labs, Mass., are used (N=10/dose or dose combination). Tail-flick testing is done similar to that of Dewey and Harris, Methods in Narcotic Research, Eds., S. Ehrenpreis and A. Neidle, pp. 101-109, Marcel Dekker, Inc., New York, 1975 using a radiant heat noxious stimulus. Following determination of control latencies (typically 2-3 sec), the mice are first injected (sc or po) with either vehicle or drug and after an appropriate interval injected intracerebroventricularly (icv) with either vehicle (10 μl of saline) or DAEAM according to Haley and McCormick, Br., J. Pharmacol., 12,12 (1957). Tail-flick latencies are re-determined 30 min later, as this has previously been determined to be the time of peak analgesia for DAEAM, a cut-off of 10 sec is employed.
Background: Hot-plate and tail-flick tests time the reaction to a heat stimulus.

Description for enkephalinase A: The following test procedure was utilized to assay the enkephalinase A inhibition of the compounds having structural formula I.
Enzyme activity was separated by taking the brain tissue (minus cerebellum) from Sprague-Dawley rats and homogenizing it in 30 volumes of 50 mM Tris buffer, pH 7.4, using a Brinkmann Polytron. The resulting homogenate is centrifuged at 50,000 xg for 15 min. The pellet, constituting the membrane bound enzyme material, is washed by resuspending it in Tris and re-centrifuging it 4 times.
Following washing, solubilization of the membrane pellet is achieved by incubating it for 45 min at 37° C. in the presence of 15 volumes (based on initial brain weight) of 50 mM Tris-1% Triton X-100 buffer, pH 7.4. […] Material is eluted from the column using a 1 liter linear NaCl gradient running from 0.0 to 0.4 M. Effluent is collected in 7 ml fractions, each of which is assayed for enkephalin degrading activity. Under these conditions Enk'ase A activity is found to elute between 120 and 200 ml. followed by AP activity (260 to 400 ml) and finally by Enk'ase B activity between 420 and 450 ml.
Enkephalin degrading activity is monitored using a radiometric assay. The substrate is ^3 H-Met^5 -ENK (50.1 Ci/mmol, New England Nuclear) diluted in 0.05 M Tris buffer, pH 7.4, such that the final reaction mixture concentration is 40 nM. Total reaction mixture volume including enzyme and substrate is 250 μl. Incubation is carried out for 90 min at 37° C. To stop the reaction, tubes are transferred to a boiling water bath for 15 min.
Assay products are separated from one another using thin layer chromatography. […] Total running time is approximately 17 hours. TLC tanks are gassed with nitrogen prior to starting the run. Following the run, markers are visualized with ninhydrin spray. These spots, along with remaining plate regions, are cut from the plate and the radioactivity corresponding to each monitored using liquid scintillation counting. IC50 's are determined using linear regression techniques.

Regarding `CC(C)(C)OC(=O)N[C@@H](CNC(=O)[C@H](Cc1ccccc1)N[C@@H](Cc1ccccc1)C(=O)O)C(=O)O` [AL, N-[N-(L-1-carboxy-2-phenylethyl)-L-phenylalanyl]-S-2-[N[(1,1-dimethylethoxy)carbonyl]amino]-β-alanine], at enkephalinase A, half-maximal inhibition (IC50) required 4.5 nM. In other words, the single-digit nanomolar range. For `O=C(O)CCNC(=O)[C@H](Cc1ccccc1)N[C@@H](Cc1ccc(-c2ccccc2)cc1)C(=O)O` [AC, N-[N-[L-1-carboxy-2-(4-phenyl)phenylethyl]-L-phenylalanyl]-β-alanine], the IC50 (as a rule, the concentration at which inhibition is half-maximal) against enkephalinase A was 2.5 nM.

As for `CC(C)(C)C(=O)OCOC(=O)CCNC(=O)[C@H](Cc1ccccc1)N[C@@H](Cc1ccccc1)C(=O)OCc1ccccc1` [L], the “DAEAM Potentiation ED50 (route)” value with Male CFl mice (po) is 155 mg/k.

`CC(C)C[C@H](N[C@H](Cc1ccccc1)C(=O)O)C(=O)N[C@@H](Cc1ccccc1)C(=O)O` [AG, N-[N-[(D-1-carboxy-2-phenylethyl)]-L-leucyl]-L-phenylalanine]: at enkephalinase A, 12 nM corresponded to half-maximal inhibition (IC50). Consider `O=C(CCNC(=O)[C@H](Cc1ccccc1)N[C@@H](Cc1ccccc1)C(=O)O)OCCOc1ccccc1` [P, N-[N-[(L-1-carboxy-2-phenylethyl)]-L-phenylalanyl]-β-alanine, 2-phenoxyethyl ester], for which it took 230 nM to reach half-maximal inhibition at enkephalinase A (IC50). For the same compound, in the assay on Male CFl mice (po), the “DAEAM Potentiation ED50 (route)” value is listed as 30-60 mg/k. As for `CC(C)(C)C(=O)OCOC(=O)CCNC(=O)[C@H](Cc1ccccc1)N[C@@H](Cc1ccccc1)C(=O)OCOC(=O)C(C)(C)C` [M], the “DAEAM Potentiation ED50 (route)” value with Male CFl mice (po) is 37 mg/k. Compound `O=C(O)CCNC(=O)[C@H](Cc1ccccc1)N[C@@H](Cc1ccccc1)C(=O)O` [K, N-[N-[(L-1-carboxy-2-phenylethyl)]-L-phenylalanyl]-β-alanine] registered an IC50 on enkephalinase A of 15 nM. Moreover, the “DAEAM Potentiation ED50 (route)” value in the assay on Male CFl mice (sc) was 17 mg/k.
